# Like-named read-outs stand apart in the source and are kept apart here.
# Experiments:
# β-lactamase = settings: disclosed in Japanese Laid-open Patent Application Nos. 55-139380 and 56-43284; cited from earlier work
# dehydropeptidase = assay: Decomposition with dehydropeptidase (stability); type: in vitro ADME; settings: dehydropeptidase extracted from pig kidney and purified; KA-6643-A given as 1
# [1] = test system: gram-positive and gram-negative bacteria; settings: disclosed in Japanese Laid-open Patent Application Nos. 55-139380 and 56-43284; cited from earlier work
# [2] = test system: Enterobacter cloacae IID 977; assay: Antibacterial spectrum, minimum inhibitory concentration; type: cell-based; settings: IID977
# Proteus vulgaris OX17 = assay: as above; type: cell-based
# [3] = test system: Escherichia coli ML-1410R EC-1; assay: Antibacterial activity-improving action against β-lactam-resistant bacteria (Disc method); type: cell-based; settings: ML1410REC1, 18 h
# Protocol: (1) Antibacterial activity-improving action against β-lactam-resistantbacteria (Disc method):
# (§1) In Penassay agar (Kyoei Pharm. Co., Ltd.) in which 200 mcg/ml of aminobenzyl penicillin (AB-PC) was inoculated germs of Escherichia coli ML-1410R EC-1 which β-lactamase-producing organisms, and 10 ml of the inoculated medium were poured on a Petri disch of 9 cm in diameter and solidified to give a test medium.
# (§2) On this agar medium were placed pulp discs of 8 mm in diameter into which were respectively introduced […] of aqueous solutions of the substance KA-6643-D with a concentration of 10 mcg/ml followed by culturing at 37° C. for 18 hours and measuring the diameter of an inhibition zone around each disc. For purposes of control, the above experiment was repeated using the same type of medium in which no AB-PC was added.
# The synergistic effect of the present substance and Ampicillin (aminobenzylpenicillin, AB-PC) on Escherichia coli which is resistant to Ampicillin was investigated by the disc method similarly to item (II) above with the results shown in Table 2.
# [4] = test system: Staphylococcus aureus 209P JC-1; assay: Antibacterial spectrum, minimum inhibitory concentration; type: cell-based
# [5] = test system: Pseudomonas aeruginosa NCTC 10490; assay: as above; type: cell-based; settings: NCTC10490
# [6] = test system: Klebsiella pneumoniae PCI-602; assay: as above; type: cell-based; settings: PCI602
# Solubility in solvents = type: physicochemical; settings: sodium salt
# [7] = test system: Escherichia coli NIHJ JC-2; assay: Antibacterial spectrum, minimum inhibitory concentration; type: cell-based; settings: NIHJJC2
# [8] = test system: Ampicillin-resistant Escherichia coli; assay: Synergistic effect with Ampicillin (AB-PC) on Ampicillin-resistant Escherichia coli (disc method); type: cell-based; settings: for Inhibitory zone: AB-PC 500 mcg/ml; for Diameter of inhibitory zone: AB-PC added
# Protocol: as §1, §2
# The synergistic effect of the present substance and Ampicillin (AB-PC) on the Ampicillin-resistant Escherichia coli was investigated by the disc method similarly to the case of item (II) above, except that AB-PC was used in an amount of 500 mcg/ml.
# The synergistic effect of the present substance and Ampicillin (AB-PC) on the Ampicillin-resistant Escherichia coli was investigated by the disc method similarly to the case of item (II) above.
# Proteus inconstants = assay: Antibacterial spectrum, minimum inhibitory concentration; type: cell-based
MIC [2] [mg/L],MIC (Proteus vulgaris OX17) [mg/L],MIC [4] [mg/L],MIC [5] [mg/L],MIC [6] [mg/L],MIC [7] [mg/L],Solubility in water and methanol (Solubility in solvents),SMILES,β-lactamase inhibiting activity (β-lactamase),rate of decomposition with dehydropeptidase (dehydropeptidase),antibacterial activity against both gram-positive and gram-negative bacteria [1],other results
,,,,,,,CC(=O)NC=C[S+]([O-])C1=C(C(=O)O)N2C(=O)C(C(C)(C)O)C2C1 (stereo not shown) [KA-6643-A],β-lactamase inhibiting activity,1,excellent antibacterial activity,
,,,,,,,CC(=O)NC=C[S+]([O-])C1=C(C(=O)O)N2C(=O)C(C(C)(C)OS(=O)(=O)O)C2C1 (stereo not shown) [KA-6643-B],β-lactamase inhibiting activity,,excellent antibacterial activity,
> 25,> 25,6.25,> 25,> 25,> 25,Soluble,CC(=O)NCCSC1=C(C(=O)O)N2C(=O)[C@@H](C(C)(C)O)[C@H]2C1 [KA-6643-G],,2.5×10^-3,,"Inhibitory zone ([8]; present substance 250 mcg/ml): 20.5 mm; Inhibitory zone ([8]; present substance 500 mcg/ml): 22.5 mm; Inhibitory zone ([8]; present substance 1,000 mcg/ml): 24.5 mm; Solubility in acetone, ethyl acetate and chloroform (Solubility in solvents; acetone, ethyl acetate and chloroform): substantially insoluble"
0.78,0.05,1.56,3.1,0.2,0.05,Soluble,CC(=O)NCCSC1=C(C(=O)O)N2C(=O)C(=C(C)CO)C2C1 (stereo not shown) [KA-6643-X],,,,"MIC (Proteus inconstants): 3.1 mg/L; zone of inhibition at 25 µg/mL ([8]; Escherichia coli, 18 h, present substance 25 mcg/ml, No AB-PC added, read-out: Diameter of inhibitory zone): 19 mm; zone of inhibition at 50 µg/mL ([8]; Escherichia coli, 18 h, present substance 50 mcg/ml, No AB-PC added, read-out: Diameter of inhibitory zone): 21 mm; Diameter of inhibitory zone ([8]; present substance 25 mcg/ml): 21.5 mm; Diameter of inhibitory zone ([8]; present substance 50 mcg/ml): 23.0 mm; Solubility in acetone, ethyl acetate, chloroform and ether (Solubility in solvents; acetone, ethyl acetate, chloroform and ether): substantially insoluble"

SMILES,MIC [2] [mg/L],MIC (Proteus vulgaris OX17) [mg/L],MIC [4] [mg/L],MIC [5] [mg/L],MIC [6] [mg/L],MIC [7] [mg/L],Solubility in water and methanol (Solubility in solvents),β-lactamase inhibiting activity (β-lactamase),rate of decomposition with dehydropeptidase (dehydropeptidase),antibacterial activity against both gram-positive and gram-negative bacteria [1],other results
CC(=O)NCCSC1=C(C(=O)O)N2C(=O)[C@@H](C(C)(C)OS(=O)(=O)O)[C@H]2C1 [KA-6643-D],6.25,12.5,25,25,3.1,3.1,,,,,"zone of inhibition at 10 µg/mL ([3]; read-out: Diameter of inhibitory zone, present compound 10 mcg/ml, AB-PC 200 mcg/ml in medium, 37° C.): 22 mm; zone of inhibition at 10 µg/mL ([3]; read-out: Diameter of inhibitory zone, present compound 10 mcg/ml, no AB-PC, 37° C.): 0 mm; Solubility in organic solvents (Solubility in solvents; organic solvents such as acetone, chloroform, ethyl acetate and petroleum ether): substantially insoluble; Solubility in water (Solubility in solvents; water): Readily soluble"

# — US4468350A, “KA-6643-Series antibiotics, process for producing same and medical composition containing same” (Kowa Co., Ltd., priority 1980, dated 1984)
